Results: EP3064205A1, “Therapeutic use of isomeric forms of 2-(4-chlorophenyl)quinolin-4-yl)(piperidin-2-yl)methanol” (Glionova AB, priority 2015, dated 2016)
pIC50: −log10 of the molar value. Like-named read-outs stand apart in the source and are kept apart here.

Legend:
BxPCI-2 cell line = experiment: ATP viability assay (CellTiter-Glo); format: cell-based; conditions: Homo sapiens; BxPCI-2 (wild type RAS); at 24h, 48h and 72h
Text: (§1) The following well-characterized human pancreatic ductal adenocarcinoma cell lines (ATCC) were used: HPAF II, BxPC-3, MIA-PaCa2 and Panc-1. These cell lines were generated from patient-derived tumors and are widely used model system to study pancreatic cancer (HPAF II: Kim YW, et al. Pancreas 4: 353-362, 1989; BxPC-3: Tan MH, et al. Cancer Invest. 4: 15-23, 1986; MIA-PaCa2: Yunis AA, et al. Int. J. Cancer 19: 128-135, 1977; Pacn-1: Lieber M, et al. Int. J. Cancer 15: 741-747, 1975).
(§2) Viability assay was conducted in 96 well microtiter plates seeded with 3000 cells. Cell viability was measured using CellTiter-Glo assay (Promega), according to the manufacturer's instructions. Luminescence was measured using Victor3 FA (Perkin Elmer) microtiter plate reader. Total luminescence was normalized relative to negative control and curve fitting performed using GraphPad Prism (v6.02) software. IC50 was determined using Cell Viability assay, and data was illustrated using GraphPad Prism (version 6.02)

MIA-PaCa-2 cell line = experiment: ATP viability assay (CellTiter-Glo); format: cell-based; conditions: Homo sapiens; MIA-PaCa-2 (RAS mutation); at 24h, 48h and 72h
Text: as §1, §2

[1] = tested on: patient-derived tumor xenograft (PDX) tumor panel; experiment: 3D clonogenic assay, whole panel; format: cell-based, human; conditions: for pIC50: Homo sapiens
Description: The anti-tumor efficacy of S1 in the patient-derived tumor xenograft (PDX) tumor panel was assessed, where the efficacy of S1 in PDX tumor panel in the 96-well format, in 10 concentrations in duplicate was performed. Colony formation of tumor cell suspensions in a soft-agar matrix was observed and quantified. The output is IC50 values and dose response-relationships based on number of colonies in control and treatment wells, as identified by an automated image analysis algorithm. Stock solution of S1 was prepared in 100% DMSO at 10 mM concentration (stored at -20°C) and reused for each experiment. Compound final test concentrations: Dilution series ½ i.e.: 50µM, 15, 5, 1.5, 0.5, 0.15, 0.05, 0.015, 0.005 and 0.0015.
Tumor xenografts (also referred to as patient-derived tumor xenografts) were passaged as subcutaneous xenografts in NMRI nu/nu mice. Tumor xenograft were removed from mice under sterile conditions, mechanically disaggregated and subsequently incubated with an enzyme cocktail consisting of collagenase type IV (41 U/mL), DNase I (125 U/mL), hyaluronidase type III (100 U/mL) and dispase II (1.0 U/mL) in RPMI 1640 medium at 37°C for 60 - 120 minutes. Cells were passed through sieves of 100 µm and 40 µm mesh size and washed with RPMI 1640 medium. The percentage of viable cells was determined in a Neubauer-hemocytometer using trypan blue exclusion. Aliquots of the cells were frozen down, and stored in liquid nitrogen.
The clonogenic assay test was carried out in 96 well plate format. For each test a frozen aliquot of tumor cells prepared from tumor xenografts was thawed and assay plates were prepared as follows: each test well contained 3 layers of equal volume, 2 layers of semi-solid medium (bottom and top layer), and one layer of medium supernatant, with or without test compound. The bottom layer consisted of 0.05 mL/well Iscove's Modified Dulbecco's Medium (Invitrogen), supplemented with 20% (v/v) fetal calf serum (Sigma), 0.01% (w/v) gentamicin (Invitrogen) and 0.75% (w/v) agar (BD Biosciences). Tumor cells were added to 0.05 mL of the same culture medium supplemented with 0.4% (w/v) agar and plated onto the bottom layer. After 24 h, test compounds were added after serial dilution in DMSO and transfer in cell culture medium, and left on the cells for the duration of the experiment (continuous exposure, 0.05 mL drug overlay). Every dish included six untreated control wells and drug-treated groups in duplicate at 10 concentrations. Cultures were incubated at 37 °C and 7.5% CO2 in a humidified atmosphere for 8 to 13 days and monitored closely for colony growth using an inverted microscope. Within this period, ex vivo tumor growth lead to the formation of colonies with a diameter of >50 µm. At the time of maximum colony formation, counts were performed with an automatic image analysis system. 24 h prior to evaluation, vital colonies were stained with a sterile aqueous solution of 2-(4-iodophenyl)-3-(4-nitrophenyl)-5-phenyltetrazolium chloride (1 mg/mL, 100 µL/well). Sigmoidal concentration-response curves were fitted to the data points obtained for each tumor model using 4 parameter non-linear curve fit (Oncotest Warehouse Software). IC50 values are reported as relative IC50 values, being the concentration of test compound that give a response (inhibition of colony formation/viability) half way between the top and bottom plateau of the sigmoidal concentration-response curve (inflection point of the curve), or as absolute IC50 values, being the concentration of test compound at the intersection of the concentration-response curves with T/C = 50%. For calculation of mean IC50 values the geometric mean was used. Results are presented as mean graph plots or heat maps (individual IC50 values relative to the geometric mean IC50 value) over all cell lines as tested.

For `O[C@H](c1cc(-c2ccc(Cl)cc2)nc2ccccc12)[C@@H]1CCCCN1` [S1, (R)-(2-(4-chlorophenyl)quinolin-4-yl)((S)-piperidin-2-yl)methanol], the pIC50 (BxPCI-2 cell line) was 4.72 to 4.92, the pIC50 (MIA-PaCa-2 cell line) was 4.72 to 4.92 and the pIC50 ([1]; colony formation, mean over tumors, read-out: absolute mean IC50 value) was 5.05. For the same compound, the pIC50 ([1]; colony formation, mean over tumors, read-out: relative mean IC50 value) was 5.09, the pIC50 ([1]; geometric mean over Table 2, read-out: Mean IC50 (qeometr.) abs. IC50) was 5.02 and the pIC50 ([1]; geometric mean over Table 2, read-out: Mean IC50 (qeometr.) rel. IC50) was 5.06. For the same compound, the pIC50 ([1]; most tumors tested, read-out: IC50) was 4.82 to 5.70, the pIC50 ([1]; three tumors: BXF1352, CXF647, LXFA289, read-out: IC50) was less than 4.82 and the “bottom plateaus of the concentration-effect curves” value ([1]; range over tested xenografts) was 0% to 47%. The “IC50 lower than the mean of all tumors” value ([1]; sensitive tumors BXF 1258 and LXFA 526, on average) was 3 fold.
